Results on 27 compounds are retold here after US8309558B2, “Compounds for the treatment of hepatitis C” (Bristol-Myers Squibb Company, priority 2008, dated 2012).

One data set concerns HCV. The following applies: cited from earlier work.
The target of data set [1] is T1, HCV NS5B RdRp genotype 1b (Hepatitis C virus genotype 1b, UniProt Q9WMX2).
T1 construct: The protein was expressed with an 18 amino acid C-terminal truncation to enhance the solubility; made in house; host or cells: E. coli BL21(DE3), pET21a vector
In words: Standard HCV NS5B RdRp enzyme assay. In kind it is biochemical. The note with it: HCV NS5B RdRp genotype 1b, read-out: IC50. In short, it runs like this:
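C-terminally truncated (18 aa) genotype 1b NS5B from E. coli, 28 nM, with 6 nM polyA template, 180 nM biotinylated oligo-dT12 primer and 3H-UTP (0.29 μM total UTP). Hepes pH 7.5 buffer with 2% DMSO; 60 min at 30° C. EDTA stop, SPA read-out; IC50 from seven concentrations by four-parameter fit.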

The subject of data set [2] is HUH-7 cells, constitutively expressing the HCV replicon. The data set can be described thus: HCV Replicon Luciferase Reporter Assay (384-well plates). The class given is cell-based. The note with it: Hepatitis C virus, untitled table after Table 1b, *EC50 determined using 384 well plate method. The procedure: The HCV replicon luciferase assay was developed to monitor the inhibitory effects of compounds described in the disclosure on HCV viral replication. Utilization of a replicon luciferase reporter assay was first described by Krieger et al (Krieger N, Lohmann V, and Bartenschlager R, J. Virol. 75(10):4614-4624 (2001)). HUH-7 cells, constitutively expressing the HCV replicon, were grown in Dulbecco's Modified Eagle Media (DMEM) (Gibco-BRL) containing 10% Fetal calf serum (FCS) (Sigma) and 1 mg/ml G418 (Gibco-BRL). Compounds were serially diluted 3 folds in DMSO for a twenty-point titration and subsequently transferred to sterile 384-well tissue-culture treated plates (Corning cat #3571). The plates were then seeded with 50 μl of cells at a density of 3.0×10^3 cells/well in DMEM containing 4% FCS (final DMSO concentration at 0.5%). After 3 days incubation at 37° C., cells were analyzed for Renilla Luciferase activity using the EnduRen as substrate (Promega cat #E6485). The EnduRen substrate was diluted in DMEM and then added to the plates to a final concentration of 7.5 μM. The plates were incubated for 2 hrs at 37° C. and then read immediately for 30 seconds with Viewlux Imager (PerkinElmer) using a luminescence program. To assess cytotoxicity of compounds, CC50 values were generated by multiplexing the EnduRen-containing plates with Cell Titer-Blue (Promega, cat #G8082). 3 μl of Cell-Titer Blue was added to each well and incubated for 8 hrs at 37° C. The fluorescence signal from each well was read, with an excitation wavelength at 525/10 nm and an emission wavelength of 598/10 nm, using the Viewlux Imager.

For a further data set, the system named is HCV replicon cells. In words: HCV replicon FRET / luciferase assay (96-well plates). The note with it: Hepatitis C virus, HCV replicon, read-out: EC50. In kind it is cell-based. In a few lines:
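Replicon cells + titrated cpds, 37 °C CO2. Alamar blue for cytotoxicity, PBS rinse, then lysis reagent w/ 20 μM FRET peptide (EDANS/DABCYL), 150 mM NaCl; kinetic read ex340/em490, 20 cycles. Alt: Dual-Glo luciferase. EC50 = 50% drop in FRET/luciferase signal after background subtraction.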

The mark [3] stands for this setting: untitled table after Table 1b, values without asterisk.
Setting [4] is: 24 h, second table titled Table 1d (numbers).
[5] abbreviates: second table titled Table 1d (numbers).

Read-outs that look alike come from different tables or passages of the source. A value given as a limit tells only on which side of the number the result lay.

T1 sequence (Q9WMX2 2420-2992): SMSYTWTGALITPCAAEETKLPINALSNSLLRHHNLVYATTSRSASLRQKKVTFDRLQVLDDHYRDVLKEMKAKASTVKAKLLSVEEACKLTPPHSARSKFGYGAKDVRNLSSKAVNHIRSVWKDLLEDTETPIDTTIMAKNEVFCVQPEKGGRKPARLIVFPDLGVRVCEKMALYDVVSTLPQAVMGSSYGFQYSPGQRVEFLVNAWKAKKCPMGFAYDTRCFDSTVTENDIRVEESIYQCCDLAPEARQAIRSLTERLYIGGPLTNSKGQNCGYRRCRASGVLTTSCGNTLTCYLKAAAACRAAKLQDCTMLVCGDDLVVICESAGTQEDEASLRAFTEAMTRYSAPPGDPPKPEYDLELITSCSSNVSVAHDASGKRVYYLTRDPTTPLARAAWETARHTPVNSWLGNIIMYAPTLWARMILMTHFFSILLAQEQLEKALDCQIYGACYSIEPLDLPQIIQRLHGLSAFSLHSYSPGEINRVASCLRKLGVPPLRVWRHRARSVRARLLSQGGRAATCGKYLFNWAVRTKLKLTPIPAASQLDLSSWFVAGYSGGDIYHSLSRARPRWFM

As for `CNC(=O)c1c(-c2ccc(F)cc2)oc2cc(N(CCO)S(C)(=O)=O)c(C3CC3)cc12` [HCV-796], the hepatic toxicity result in the data set on HCV (patients, extended dosing of the combination regimens) is “hepatic toxicity observed”. The “HCV RNA levels in patients” value in the data set on HCV (single agent or combined with interferon and ribavirin) is recorded as “reduce HCV RNA levels in patients”.
Regarding `CNC(=O)c1c(-c2ccc(F)cc2)oc2ccc(-c3cc(C(=O)NC4(c5nc(C)no5)CC4)c(OC)cc3C)cc12` [drawing 598], the half-inhibitory concentration (IC50) in data set [1] (untitled table after Table 1b) came out at 20 nM. This compound showed a concentration for a half-maximal effect (EC50) in data set [2] of 1.6 nM.
Taken in the same sequence, the figures for `CNC(=O)c1c(-c2ccc(F)cc2)oc2ccc(-c3cc(C(=O)NC4(c5ncccn5)CC4)ccc3C)cc12` [drawing 599] were under 20 nM and 0.304 nM.
The corresponding values for `CNC(=O)c1c(-c2ccc(F)cc2)oc2ccc(-c3cc(C(=O)NC4(c5ccccn5)CC4)cc(F)c3C)cc12` [drawing 600] are 10 nM and 0.425 nM.
Taken in the same sequence, the figures for `CNC(=O)c1c(-c2ccc(F)cc2)oc2ccc(-c3cc(C(=O)NC4(c5ccccc5)CC4)ccc3C)cc12` [drawing 601] were 20 nM and 0.786 nM.
`CNC(=O)c1c(-c2ccc(F)cc2)oc2ccc(-c3cc(C(=O)NC4(c5nc(C)no5)CC4)ccc3C)cc12` [drawing 602]: in data set [1] (untitled table after Table 1b), the IC50 stood at 7.2 nM. In addition, it took 0.805 nM to reach a half-maximal effect in data set [2] (EC50).
The corresponding values for `CNC(=O)c1c(-c2ccc(F)cc2)oc2ccc(-c3cc(C(=O)NC4(c5ccncc5)CC4)ccc3C)cc12` [drawing 603] are 3.95 nM and 0.83 nM.
As for `CNC(=O)c1c(-c2ccc(F)cc2)oc2ccc(-c3cc(C(=O)NC4(c5ccccc5)CC4)ccc3F)cc12` [drawing 609], the EC50 in the data set with HCV replicon cells (setting [3]) was 3.57 nM. Further, in data set [1] (untitled table after Table 1b), the IC50 stood at 20 nM.
Taken in the same sequence, the figures for `CNC(=O)c1c(-c2ccc(F)cc2)oc2ccc(-c3cccc(C(=O)NC4(c5ccccc5)CC4)c3)cc12` [drawing 610] were 3.58 nM and 5.9 nM.
The corresponding values for `CNC(=O)c1c(-c2ccc(F)cc2)oc2ccc(-c3cccc(C(=O)N4CCCCC4C)c3)cc12` (centres unmarked) [drawing 611] are 1130 nM and 290 nM.
The corresponding values for `CNC(=O)c1c(-c2ccc(F)cc2)oc2ccc(-c3cccc(C(=O)N[C@H]4CCC[C@H]4c4ccc(Cl)cc4)c3)cc12` [drawing 612] are 1130 nM and over 12500 nM.
With `CNC(=O)c1c(-c2ccc(F)cc2)oc2ccc(-c3cccc(C(=O)N[C@@H](CO)C(C)C)c3)cc12` [drawing 613], the EC50 with HCV replicon cells (setting [3]) stood at 1250 nM. Also, the IC50 in data set [1] (untitled table after Table 1b) came to 800 nM.
The corresponding values for `CCCC[C@H](CO)NC(=O)c1cccc(-c2ccc3oc(-c4ccc(F)cc4)c(C(=O)NC)c3c2)c1` [drawing 614] are 1260 nM and 600 nM.
In the case of `CNC(=O)c1c(-c2ccc(F)cc2)oc2ccc(-c3cccc(C(=O)NCCOC)c3)cc12` [drawing 615], the EC50 with HCV replicon cells (setting [3]) worked out at 1340 nM. In addition, the IC50 in data set [1] (untitled table after Table 1b) was found to be 1710 nM.
Take `CNC(=O)c1c(-c2ccc(F)cc2)oc2ccc(-c3cccc(C(=O)N(C)CCC#N)c3)cc12` [drawing 616]: the EC50 with HCV replicon cells (setting [3]) worked out at 1380 nM. Besides, in data set [1] (untitled table after Table 1b), the IC50 is 800 nM.
Taken in the same sequence, the figures for `CCC[C@H](CO)NC(=O)c1cccc(-c2ccc3oc(-c4ccc(F)cc4)c(C(=O)NC)c3c2)c1` [drawing 617] were 1390 nM and 1150 nM.
Taken in the same sequence, the figures for `CN1CN(C)c2c(-c3cccc(C(N)=O)c3)ccc3oc(-c4ccc(F)cc4)c(c23)C1=O` [drawing 619] were 13700 nM and over 12500 nM.
`CNC(=O)c1c(-c2ccc(F)cc2)oc2ccc(-c3ccc(C(=O)N(C)Cc4cccnc4)cc3)cc12` [drawing 620]: the EC50 in the data set on HCV replicon cells (setting [3]) was 15100 nM. Also, in data set [1] (untitled table after Table 1b), the IC50 turned out to be 9920 nM.
Regarding `CNC(=O)c1c(-c2ccc(F)cc2)oc2ccc(-c3ccc(C(=O)N4CCC[C@@H]4COC)cc3)cc12` [drawing 621], the EC50 with HCV replicon cells (setting [3]) was found to be 15400 nM. Also, the IC50 in data set [1] (untitled table after Table 1b) was 10400 nM.
Consider `CNC(=O)c1c(-c2ccc(F)cc2)oc2ccc(-c3cccc(C(=O)N4CC[C@H](NC(C)=O)C4)c3)cc12` [drawing 622], for which, in the data set with HCV replicon cells (setting [3]), the concentration giving a half-maximal response (EC50) was found to be 16100 nM. Further, in data set [1] (untitled table after Table 1b), the IC50 worked out at 7130 nM.
Regarding `CNC(=O)c1c(-c2ccc(F)cc2)oc2ccc(-c3cc(C(=O)NC4(c5ncccn5)CC4)ccc3C)c(F)c12` [drawing 623], in data set [2], it took 5.68 nM to reach a half-maximal effect (EC50).
Regarding `CNC(=O)c1c(-c2ccc(F)cc2)oc2ccc(-c3cc(C(=O)NC4(c5ncc(C)s5)CC4)ccc3C)cc12` [drawing 625], in the data set on HCV replicon cells (24 h, Table 1d (class symbols)), the EC50 lay within 1 to 250 nM. In addition, in data set [1] (Table 1d (class symbols)), the 50% inhibitory concentration (IC50) is under 20 nM.
The corresponding values for `CNC(=O)c1c(-c2ccc(F)cc2)oc2ccc(-c3cc(C(=O)NC4(c5ccccn5)CC4)c(OCc4cnccn4)cc3C)cc12` [drawing 660] are 1 to 250 nM and 1 to 250 nM.
The corresponding values for `CNC(=O)c1c(-c2ccc(F)cc2)oc2ccc(-c3cc(C(=O)NC4(c5ncccn5)CC4)cc(F)c3C)c(F)c12` [drawing 668] are 1 to 250 nM and 1 to 250 nM.
Regarding `CNC(=O)c1c(-c2ccc(F)cc2)oc2ccc(-c3cc(C(=O)NC4(c5ncc(C)s5)CC4)ccc3C)cc12` [drawing 708], the EC50 in the data set with HCV replicon cells (setting [4]) was 1.9 nM. Also, the IC50 in data set [1] (setting [5]) was under 17 nM.
Taken in the same sequence, the figures for `CNC(=O)c1c(-c2ccc(F)cc2)oc2ccc(-c3cc(C(=O)NC4(c5ccccn5)CC4)c(OCc4cnccn4)cc3C)cc12` [drawing 711] were 1 nM and 2.1 nM.
The corresponding values for `CNC(=O)c1c(-c2ccc(F)cc2)oc2ccc(-c3cc(C(=O)NC4(c5ncccn5)CC4)cc(F)c3C)c(F)c12` [drawing 712] are 2.4 nM and 8.1 nM.
